Results published in patent US9284272B2, “Inhibitors of histone methyltransferase G9a” (AbbVie Inc., priority 2014, dated 2016).
Values joined by “and” are separate entries in the source; they are usually repeats but may differ in a detail not shown here. Equal values may be shown once. Read-outs that look alike come from different tables or passages of the source.

Tests used:
[1] = Cytotoxicity, CellTiter Glo; assay type: cell-based; conditions: human, SKBR3 cells, 5-day proliferation
[2] = Cytotoxicity, CellTiter Glo; assay type: cell-based; conditions: human, US2OS cells, 7-day proliferation, neural crest derived lines
[3] = Cytotoxicity, CellTiter Glo; assay type: cell-based; conditions: human, DU145 cells, 5-day proliferation
[4] = Cytotoxicity, CellTiter Glo; assay type: cell-based; conditions: human, Calu6 cells, 5-day proliferation
[5] = Cytotoxicity, CellTiter Glo; assay type: cell-based; conditions: human, Kasume-1 cells, 5-day proliferation
[6] = Cytotoxicity, CellTiter Glo; assay type: cell-based; conditions: human, KMS11 cells, 5-day proliferation
[7] = Cytotoxicity, CellTiter Glo; assay type: cell-based; conditions: human, ZR7350 cells, 7-day proliferation, neural crest derived lines
[8] = Cytotoxicity, CellTiter Glo; assay type: cell-based; conditions: human, DaoY cells, 7-day proliferation, neural crest derived lines
[9] = Cytotoxicity, CellTiter Glo; assay type: cell-based; conditions: human, RPMI8226 cells, 5-day proliferation
[10] = test system: human peripheral blood mononucleated cells (PBMCs); assay: Viability of PBMCs (Caspase-Glo 3/7, CellTiter Glo); assay type: cell-based; conditions: 0-10 uM, 48 h
Experimental: Following treatment, Caspase 3/7 activity (i.e., a marker of apoptosis) was assessed by the Caspase-Glo 3/7 assay system (FIG. 7A), and cell viability was assessed by CellTiter Glo assay (FIG. 7B).

[11] = Cytotoxicity, CellTiter Glo; assay type: cell-based; conditions: human, IMR-32 cells, 12-day proliferation, neural crest derived lines
[12] = Cytotoxicity, CellTiter Glo; assay type: cell-based; conditions: human, K562 cells, 5-day proliferation
[13] = Cytotoxicity, CellTiter Glo; assay type: cell-based; conditions: human, HL-60 cells, 5-day proliferation
in vitro = assay type: cell-based; conditions: PH-1; 7-day proliferation, neural crest derived lines; read-out: IC50 cytotoxicity
[14] = Cytotoxicity, CellTiter Glo; assay type: cell-based; conditions: human, H929 cells, 5-day proliferation
[15] = Cytotoxicity, CellTiter Glo; assay type: cell-based; conditions: human, MHH-65-1 cells, 7-day proliferation, neural crest derived lines
[16] = Cytotoxicity, CellTiter Glo; assay type: cell-based; conditions: human, OPM2 cells, 5-day proliferation
[17] = Cytotoxicity, CellTiter Glo; assay type: cell-based; conditions: human, THP-1 cells, 5-day proliferation
[18] = Cytotoxicity, CellTiter Glo; assay type: cell-based; conditions: human, SK-N-MC cells, 7-day proliferation, neural crest derived lines
[19] = Cytotoxicity, CellTiter Glo; assay type: cell-based; conditions: human, CAPO-ES1 cells, 7-day proliferation, neural crest derived lines
[20] = Cytotoxicity, CellTiter Glo; assay type: cell-based; conditions: human, TC-71 cells, 7-day proliferation, neural crest derived lines
[21] = Cytotoxicity, CellTiter Glo; assay type: cell-based; conditions: human, G-401 cells, 7-day proliferation, neural crest derived lines
[22] = Cytotoxicity, CellTiter Glo; assay type: cell-based; conditions: human, PA-1 cells, 7-day proliferation, neural crest derived lines
[23] = Cytotoxicity, CellTiter Glo; assay type: cell-based; conditions: human, LN229 cells, 5-day proliferation
[24] = Cytotoxicity, CellTiter Glo; assay type: cell-based; conditions: A-201 cells, 12-day proliferation, neural crest derived lines
[25] = Cytotoxicity, CellTiter Glo; assay type: cell-based; conditions: human, L-363 cells, 5-day proliferation
[26] = Cytotoxicity, CellTiter Glo; assay type: cell-based; conditions: human, LNCap cells, 5-day proliferation
[27] = Cytotoxicity, CellTiter Glo; assay type: cell-based; conditions: human, MV4;11 cells, 5-day proliferation
H3K9me2 = assay: Cellular immunostaining (In-Cell Western), H3K9Me2 antibody immunofluorescence in PC3 cells; assay type: cell-based, human; conditions: for H3K9me2 % inhibition, single well of triplicate / inhibition at 0.03 µM / inhibition at 0.1 µM / inhibition at 0.3 µM / inhibition at 1 µM / inhibition at 3 µM: 72 hours; for inhibition at 0.03 µM / inhibition at 0.1 µM / inhibition at 0.3 µM / inhibition at 1 µM / inhibition at 3 µM: Homo sapiens, PC-3, 72 h
Experimental: For comparison, the known G9a inhibitor UNC0638 (see structure in FIG. 1) was evaluated in this study concurrently.
Human PC3 cells (ATCC, Manassas, Va.) were grown in RPMI+10% Fetal Bovine Serum and plated at 5,000 cells per well in a 96-well plate. The following day compounds and DMSO controls were added in triplicate at the indicated concentrations. Cells were fixed following incubation at 37° C. for 72 hours with 10% formaldehyde and then permeabilized with 0.1% Triton X-100. Cells were then washed with PBS and blocked with 0.1% BSA/PBS solution. Mouse anti-H3K9me2 (1:200, AbCam #1220, Cambridge, Mass.) and rabbit anti-Histone H3 (1:500, Cell Signaling Technology #4499, Danvers, Mass.) primary antibodies in 0.3% BSA were then added together to each well and incubated overnight at 4° C. The following day cells were washed in PBS-T (PBS with 0.1% Tween) followed by addition of anti-mouse (IR800) and anti-rabbit (IR700) secondary antibodies (LI-COR Biosciences, Lincoln, Nebr.) and incubated for one hour at room temperature. Cells were then washed with PBS-T followed by PBS and liquid was removed from all wells. The plate was scanned using both the 700 nm (anti-rabbit detection) and 800 nm (anti-mouse detection) channels on the Odyssey Imaging System (LI-COR Biosciences, Lincoln, Nebr.). Data was quantified using the LI-COR imaging suite and graphed as % inhibition H3K9me2/total H3/well compared to DMSO control wells. Wells treated in triplicate were averaged for each indicated concentration and error bars represent the standard deviation (n=3).

[28] = Cytotoxicity, CellTiter Glo; assay type: cell-based; conditions: human, RS4;11 cells, 5-day proliferation
[29] = Cytotoxicity, CellTiter Glo; assay type: cell-based; conditions: human, 22RV1 cells, 5-day proliferation
[30] = Cytotoxicity, CellTiter Glo; assay type: cell-based; conditions: human, KMS12 cells, 5-day proliferation

SMILES: COc1cc2c(NC3CCN(C(C)C)CC3)nc(C3CCCCC3)nc2cc1OCCCN1CCCC1 [UNC0638, reference compound]
- IC50 at 5 day [1]: 0.6 µM
- IC50 at 7 day [2]: 0.5 µM
- IC50 at 5 day [3]: 0.7 µM
- IC50 at 5 day [4]: 0.5 µM
- IC50 at 5 day [5]: 1.1 µM
- IC50 at 5 day [6]: 4 µM
- IC50 at 7 day [7]: 1.2 µM
- IC50 at 7 day [8]: 0.1 µM
- IC50 at 5 day [9]: 5.1 µM
- effect on PBMC viability (Caspase 3/7 activity and CellTiter Glo) [10]: did at higher concentrations
- IC50 at 12 day [11]: 0.1 µM
- IC50 at 5 day [12]: 5.3 µM
- IC50 at 5 day [13]: 6.5 µM
- IC50 at 7 day (in vitro): 4.4 µM
- IC50 at 5 day [14]: 4.6 µM
- IC50 at 7 day [15]: 1.9 µM
- IC50 at 5 day [16]: 5.6 µM
- IC50 at 5 day [17]: 4.9 µM
- IC50 at 7 day [18]: 0.2 µM
- IC50 at 7 day [19]: 1.2 µM
- IC50 at 7 day [20]: 0.6 µM
- IC50 at 7 day [21]: 0.4 µM
- IC50 at 7 day [22]: 0.2 µM
- IC50 at 5 day [23]: 0.5 µM
- IC50 at 12 day [24]: 0.6 µM
- IC50 at 5 day [25]: 3.9 µM
- IC50 at 5 day [26]: 0.3 µM
- IC50 at 5 day [27]: 1.7 µM
- reduction of cellular levels of H3K9Me2 (H3K9me2; 3 μM): ~50%
- H3K9me2 % inhibition, single well of triplicate (H3K9me2; 0.03 uM): 17.8107% and 15.8006%
- H3K9me2 % inhibition, single well of triplicate (H3K9me2; 0.1 uM): 27.68% and 25.03%
- H3K9me2 % inhibition, single well of triplicate (H3K9me2; 0.3 uM): 41.05% and 40.37%
- H3K9me2 % inhibition, single well of triplicate (H3K9me2; 1 uM): 43.21% and 47.35%
- H3K9me2 % inhibition, single well of triplicate (H3K9me2; 3 uM): 48.22% and 49.38%
- inhibition at 0.03 µM (H3K9me2; 0.03 uM, n=3, read-out: H3K9me2 % inhibition, average): 14.6%
- inhibition at 0.03 µM (H3K9me2; 0.03 uM, read-out: H3K9me2 % inhibition, single well of triplicate): 10%
- inhibition at 0.1 µM (H3K9me2; 0.1 uM, n=3, read-out: H3K9me2 % inhibition, average): 25.8%
- inhibition at 0.1 µM (H3K9me2; 0.1 uM, read-out: H3K9me2 % inhibition, single well of triplicate): 24.6%
- inhibition at 0.3 µM (H3K9me2; 0.3 uM, n=3, read-out: H3K9me2 % inhibition, average): 40.8%
- inhibition at 0.3 µM (H3K9me2; 0.3 uM, read-out: H3K9me2 % inhibition, single well of triplicate): 41.1%
- inhibition at 1 µM (H3K9me2; 1 uM, n=3, read-out: H3K9me2 % inhibition, average): 45.2%
- inhibition at 1 µM (H3K9me2; 1 uM, read-out: H3K9me2 % inhibition, single well of triplicate): 44.9%
- inhibition at 3 µM (H3K9me2; 3 uM, n=3, read-out: H3K9me2 % inhibition, average): 48.5%
- inhibition at 3 µM (H3K9me2; 3 uM, read-out: H3K9me2 % inhibition, single well of triplicate): 47.8%
- cell viability as measured by total histone H3 (H3K9me2; versus no treatment): No difference in cell viability
- IC50 at 5 day [28]: 3.1 µM
- IC50 at 5 day [29]: 0.2 µM
- IC50 at 5 day [30]: 4.4 µM
